Assay results published in ChEMBL document CHEMBL1201862, “PubChem BioAssay data set” (2004).
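Results reflect a 48-hour exposure of cells in 96-well plates to compound at five concentrations. GI50 marks 50% less growth.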 Activity calls are given as the source filed them. Rule as the data show it: active = GI50 up to about 1.1 µM and inactive = higher.

How the values were obtained:
Assay in all cases: DTP human tumour cell line panel, 48 h
[1] = tested on: 786-0
[2] = tested on: HCT-116
[3] = tested on: TK-10
[4] = tested on: NCI-H522
[5] = tested on: NCI-H460
[6] = tested on: SK-MEL-28
[7] = tested on: HOP-92
[8] = tested on: ACHN
[9] = tested on: OVCAR-5
[10] = tested on: PC-3
[11] = tested on: M14
[12] = tested on: CAKI-1
[13] = tested on: SW-620
[14] = tested on: SK-MEL-2
[15] = tested on: HOP-62
[16] = tested on: HL-60
[17] = tested on: COLO 205
[18] = tested on: SK-OV-3
[19] = tested on: MDA-MB-435

Measured: GI50

N=C(N)c1ccc(/N=N\c2c(O)ccc3c2[nH]c2ccccc23)cc1
inactive: [1] 1.69 µM | [2] 3.31 µM | [3] 45.5 µM | [4] > 53.2 µM | [5] 2.76 µM | [6] 18.8 µM | [7] 98.6 µM | [8] 41.6 µM | [9] 41.5 µM | [10] 9.73 µM | [11] 36.1 µM | [12] > 50.8 µM | [13] 2.32 µM | [14] 20.3 µM | [15] 13.6 µM | [16] 1.15 µM | [17] 21.7 µM | [18] 25.2 µM | [19] 3.39 µM

O/N=C1\CCc2cc3c(cc21)CCC3
inactive: [1] > 100 µM | [2] > 100 µM | [3] > 100 µM | [4] > 100 µM | [5] > 100 µM | [6] > 100 µM | [7] 55.7 µM | [8] > 100 µM | [9] > 100 µM | [10] > 100 µM | [11] > 100 µM | [12] > 100 µM | [13] > 100 µM | [14] > 100 µM | [15] > 100 µM | [16] 67.5 µM | [17] > 100 µM | [18] > 100 µM | [19] > 100 µM

Cc1ccc(O)c(C2=NNC(c3cccc(Br)c3)C2)c1 (stereo not drawn)
inactive: [1] > 100 µM | [2] 40.4 µM | [3] > 100 µM | [4] 28.5 µM | [5] 33.9 µM | [7] 15.4 µM | [8] 34.3 µM | [9] > 100 µM | [10] 45.8 µM | [11] > 100 µM | [12] 27.9 µM | [13] 67.1 µM | [14] > 100 µM | [15] 86.3 µM | [16] 53.3 µM | [17] > 100 µM | [18] 34.3 µM | [19] 19.8 µM

CC(C)(C)c1cc(C(O)(C(=O)O)C(=O)O)cc(C(C)(C)C)c1O
inactive: [1] > 100 µM | [2] > 100 µM | [3] > 100 µM | [4] > 100 µM | [6] > 100 µM | [7] > 100 µM | [8] > 100 µM | [9] > 100 µM | [10] > 100 µM | [11] > 100 µM | [12] > 100 µM | [13] > 100 µM | [14] > 100 µM | [15] > 100 µM | [16] > 100 µM | [17] > 100 µM | [18] > 100 µM | [19] > 100 µM

CC(C)(O)C1OCC(C2CCC3(C)C4=CCC5C(C)(C)C(O)CCC5(C)C4CCC23C)CC1O (stereo not drawn)
inactive: [1] 14.2 µM | [2] 14.5 µM | [3] 13.2 µM | [4] 11.5 µM | [5] 13.4 µM | [6] 15.8 µM | [7] 12.6 µM | [8] 15.3 µM | [9] 19.5 µM | [10] 10.5 µM | [11] 27.7 µM | [12] 16 µM | [13] 15.2 µM | [14] 22.8 µM | [16] > 100 µM | [17] 15 µM | [18] 15.8 µM | [19] 15.5 µM

O=C(c1ccc(Br)cc1)n1c2ccc(Br)cc2c2nc3ccccc3nc21
inactive: [1] > 100 µM | [2] > 100 µM | [3] > 100 µM | [4] > 100 µM | [5] > 100 µM | [6] > 100 µM | [7] > 100 µM | [8] > 100 µM | [9] > 100 µM | [10] > 100 µM | [11] > 100 µM | [12] > 100 µM | [13] > 100 µM | [14] > 100 µM | [15] > 100 µM | [16] 83.6 µM | [17] > 100 µM | [19] > 100 µM

Cc1nc2ccccc2c(=O)n1NC(=O)c1ccc(CS)cc1
inactive: [1] 11.5 µM | [2] 4.4 µM | [3] > 10 µM | [4] 12.3 µM | [5] 19 µM | [6] 12.7 µM | [7] 7.85 µM | [8] 10.9 µM | [9] 34.5 µM | [10] 1.74 µM | [11] 12.2 µM | [13] 6 µM | [15] 18.8 µM | [16] 2.7 µM | [17] 15.2 µM | [18] 17.8 µM | [19] 12.9 µM

Cc1cc(N2CCCC2)c([N+](=O)[O-])cc1[N+](=O)[O-]
inactive: [1] > 100 µM | [2] > 100 µM | [4] > 100 µM | [5] > 100 µM | [6] > 100 µM | [7] > 100 µM | [8] > 100 µM | [10] > 100 µM | [11] > 100 µM | [12] > 100 µM | [13] > 100 µM | [14] > 100 µM | [16] > 100 µM | [17] > 100 µM | [18] > 100 µM | [19] > 100 µM
